In US9212167B2, “Mitochondrial targeted stimulators of apoptosis” (The Rockefeller University, priority 2011, dated 2015):

What was measured:
Type in all cases: cell-based
HeLa cells [1] = assay: Alamar Blue cell viability, HeLa cells; conditions: ten-point dose response, up to 50 μM, FIG. 1
Method: (§1) The compound described above as Compound 15 was tested for its effect on the viability of cells using Alamar Blue staining. This reagent takes advantage of the conversion by healthy cells of a non-fluorescent molecule, resazurin, to the brightly red-fluorescent resorufin. The assay was performed in 384 well plate format, and the fluorescence (560 nm Ex/590 nm Em) was detected and quantified using a Perkin-Elmer Envision plate reader. Four samples were compared. Samples were the compound identified as 2PA in paragraph [0014] (i.e. just “A” without “L” or “B”), a dimer of 2PA (i.e. A-L-A, wherein L is C6H4):
(§2) PK11195 alone and Compound 15. Ten-point dose responses were performed in both HeLa and T98G cells to determine the concentration at which each compound was effective.

T98G cells = assay: Alamar Blue cell viability, T98G cells; conditions: ten-point dose response, up to 50 μM, FIG. 2
Method: as §1, §2

HeLa cells [2] = assay: Count of apoptotic HeLa cells with and without pan-caspase inhibitor ZVAD-FMK; conditions: 40 μM, 3 or 6 hours
Method: To verify the induction of apoptosis by Compound 15, HeLa cells were treated with 40 μM of the compound and incubated for 3 or 6 hours in the presence and absence of pan-caspase inhibitor ZVAD-FMK. Apoptotic cells were counted at the indicated times in each condition.

SMILES | cell killing (percent survival as a function of concentration) (HeLa cells [1]) | cell killing (percent survival as a function of concentration) (T98G cells) | induction of apoptosis (apoptotic cells counted) (HeLa cells [2]; absence of ZVAD-FMK) | induction of apoptosis (apoptotic cells counted) with caspase inhibitor (HeLa cells [2]; presence of pan-caspase inhibitor ZVAD-FMK)
C#CCOC(C)C(NC(=O)C(C)NC)C(=O)N1CCCC1Cn1nnnc1Sc1ccccc1 (stereo not shown) [monomer] | do not kill at any concentration | do not kill at any concentration |  | 
CNC(C)C(=O)NC(C(=O)N1CCCC1Cn1nnnc1Sc1ccccc1)C(C)OCC#CC#CCOC(C)C(NC(=O)C(C)NC)C(=O)N1CCCC1Cn1nnnc1Sc1ccccc1 (stereo not shown) [dimer] | do not kill at any concentration | do not kill at any concentration |  | 
CN[C@@H](C)C(=O)N[C@H](C(=O)N1CCC[C@H]1Cn1nnnc1Sc1ccccc1)C(C)OCc1cn(CCOCCOCCOCCNC(=O)c2cc3ccccc3c(-c3ccccc3Cl)n2)nn1 (stereo partly shown) [Compound 15] | kills both HeLa and T98G cells effectively | kills both HeLa and T98G cells effectively | can induce cell death | the caspase inhibitor can prevent this induction of cell death
CCC(C)N(C)C(=O)c1cc2ccccc2c(-c2ccccc2Cl)n1 (stereo not shown) [PK11195] | do not kill at any concentration | do not kill at any concentration |  | 
